Data: patent publication EP0247464A1, “New quinolone compounds and a process for the preparation thereof” (FUJISAWA PHARMACEUTICAL CO., LTD., priority 1986, dated 1987)
≈ marks a conversion by molar mass, not a printed value.

Legend:
Acute toxicity in mice = format: in vivo; details: 100 mg/kg injected into lateral vein, ICR-strain male mouse, 5 mice, observed for 7 days
Procedure: The test compound (16 mg) was dissolved in 1N NaOH (0.1 ml) and steril distilled water (3.9 ml).

Vibrio anguillarum NP-1 = experiment: Minimal Inhibitory Concentration (MIC), antibacterial activity against fish-disease strain; format: cell-based; details: NP1, 2.5% sodium chloride added Heart Infusion Agar, 20 hours incubation at 25°C
Procedure: MICs againstvibrio anguillarum originated in fish diseases were obtained by the following method. An overnight culture broth of each strain was diluted 10-fold (approximately 10^6 cells/ml) and was stamped on 2.5% sodium chloride added Heart Infusion Agar containing graded concentrations of the test compounds, and MICs were expressed in terms of pg/ml after 20 hours incubation at 25°C.

[1] = test system: Mycoplasma pulmonis PG-22; experiment: Minimal Inhibitory Concentration (MIC), antimycoplasmal activity, agar dilution method; format: cell-based; details: PG22, 37°C for 3 to 4 days, 5 per cent carbon dioxide, lowest concentration completely inhibiting colony growth
Procedure: MICs of test compound were obtained by the agar dilution method.
Agar plates contained two-fold decremental dilutions of the test compound, ranging from 0.05 to 100 pg/ml. The inoculum (0.01 ml, containing approximately 10^5 CFU/ml of liquid medium which had been cultured at 37°C for 3 days) was plated on moisture-free media surfaces. Plates were placed in a humidified atmosphere of 5 per cent carbon dioxide and 95 per cent air, and incubated at 37°C for 3 to 4 days. The colonies grown on the plate were observed under a low microscopic magnification (x60).

For `O=C(O)c1cn(C2CC2)c2c(F)c(N3CCNCC3)c(F)c(F)c2c1=O` [compound (I-d), 1-Cyclopropyl-5,6,8-trifluoro-7-(1-piperazinyl)-4-quinolone-3-carboxylic acid], the “Survivals / test mice” value (Acute toxicity in mice) was 5 / 5, the MIC (Vibrio anguillarum NP-1) was 0.1 µg/mL (≈ 0.272 µM) and the MIC [1] was 0.1 µg/mL (≈ 0.272 µM).
